Experimental data taken from PubChem BioAssay AID180 (DTP/NCI, 2004).
Where “and” joins values, the source holds several entries; their conditions need not be identical. Equal values may be shown once.

Tested on: BDF1 mice, Adenocarcinoma 755 s.c., tumor weight T/C
Assay: NCI In Vivo Anticancer Drug Screen. Data for tumor model Adenocarcinoma 755 (subcutaneous) in B6D2F1 (BDF1) mice
Details: endpoint: mean tumor weight, higher = larger tumour
Summary of the method: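 Transplantable tumor implanted; mice dosed with compound or vehicle; survival or tumor size recorded; ratio of treated to vehicle control reported.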

CSc1ncnc2nc[nH]c12
T/C (dose: 0.5 mg/kg/injection, schedule: Q#A X022 (ip), vehicle: carboxymethylcellulose (CMC)): 64 % of control
T/C (dose: 1.0 mg/kg/injection, schedule: Q01DX011 (im), vehicle: carboxymethylcellulose (CMC)): 99 % of control
T/C (dose: 1.0 mg/kg/injection, schedule: Q01DX011 (oral), vehicle: carboxymethylcellulose (CMC)): 58 % of control
T/C (dose: 1.0 mg/kg/injection, schedule: Q01DX011 (sc), vehicle: carboxymethylcellulose (CMC)): 58 % of control
T/C (dose: 1.5 mg/kg/injection, schedule: Q01DX011 (ip), vehicle: carboxymethylcellulose (CMC)): 50 % of control
T/C (dose: 2.5 mg/kg/injection, schedule: Q#A X022 (ip), vehicle: carboxymethylcellulose (CMC)): 46 % of control
T/C (dose: 3.0 mg/kg/injection, schedule: Q01DX011 (ip), vehicle: carboxymethylcellulose (CMC)): 82 % of control
T/C (dose: 5.0 mg/kg/injection, schedule: Q01DX011 (im), vehicle: carboxymethylcellulose (CMC)): 89 % of control
T/C (dose: 5.0 mg/kg/injection, schedule: Q01DX011 (oral), vehicle: carboxymethylcellulose (CMC)): 5 % of control and 26 % of control
T/C (dose: 5.0 mg/kg/injection, schedule: Q01DX011 (sc), vehicle: carboxymethylcellulose (CMC)): 60 % of control
T/C (dose: 5.0 mg/kg/injection, schedule: Q03DX004 (ip), vehicle: carboxymethylcellulose (CMC)): 70 % of control
T/C (dose: 5.0 mg/kg/injection, schedule: Q#A X022 (ip), vehicle: carboxymethylcellulose (CMC)): 40 % of control
T/C (dose: 6.0 mg/kg/injection, schedule: Q01DX011 (ip), vehicle: carboxymethylcellulose (CMC)): 28 % of control
T/C (dose: 7.5 mg/kg/injection, schedule: Q#A X022 (ip), vehicle: carboxymethylcellulose (CMC)): 40 % of control
T/C (dose: 10.0 mg/kg/injection, schedule: Q01DX001 (ip), vehicle: carboxymethylcellulose (CMC)): 94 % of control
T/C (dose: 10.0 mg/kg/injection, schedule: Q01DX011 (sc), vehicle: carboxymethylcellulose (CMC)): 30 % of control
T/C (dose: 10.0 mg/kg/injection, schedule: Q03DX004 (ip), vehicle: carboxymethylcellulose (CMC)): 86 % of control
T/C (dose: 12.0 mg/kg/injection, schedule: Q01DX011 (ip), vehicle: carboxymethylcellulose (CMC)): 13 % of control
T/C (dose: 12.5 mg/kg/injection, schedule: Q#A X022 (ip), vehicle: carboxymethylcellulose (CMC)): 4 % of control
T/C (dose: 15.0 mg/kg/injection, schedule: Q01DX011 (im), vehicle: carboxymethylcellulose (CMC)): 8 % of control
T/C (dose: 15.0 mg/kg/injection, schedule: Q01DX011 (oral), vehicle: carboxymethylcellulose (CMC)): 5 % of control
T/C (dose: 15.0 mg/kg/injection, schedule: Q01DX011 (sc), vehicle: carboxymethylcellulose (CMC)): 4 % of control
T/C (dose: 25.0 mg/kg/injection, schedule: Q01DX001 (ip), vehicle: carboxymethylcellulose (CMC)): 53 % of control
T/C (dose: 25.0 mg/kg/injection, schedule: Q01DX006 (iv), vehicle: carboxymethylcellulose (CMC)): 36 % of control
T/C (dose: 25.0 mg/kg/injection, schedule: Q01DX011 (im), vehicle: carboxymethylcellulose (CMC)): 6 % of control
T/C (dose: 25.0 mg/kg/injection, schedule: Q01DX011 (ip), vehicle: carboxymethylcellulose (CMC)): 1 % of control
T/C (dose: 25.0 mg/kg/injection, schedule: Q01DX011 (oral), vehicle: carboxymethylcellulose (CMC)): 11 % of control
T/C (dose: 25.0 mg/kg/injection, schedule: Q03DX004 (ip), vehicle: carboxymethylcellulose (CMC)): 82 % of control
T/C (dose: 25.0 mg/kg/injection, schedule: Q#A X022 (ip), vehicle: carboxymethylcellulose (CMC)): 2 % of control
T/C (dose: 50.0 mg/kg/injection, schedule: Q01DX001 (ip), vehicle: carboxymethylcellulose (CMC)): 41 % of control
T/C (dose: 50.0 mg/kg/injection, schedule: Q01DX006 (iv), vehicle: carboxymethylcellulose (CMC)): 37 % of control
T/C (dose: 50.0 mg/kg/injection, schedule: Q01DX011 (ip), vehicle: carboxymethylcellulose (CMC)): 1 % of control
T/C (dose: 50.0 mg/kg/injection, schedule: Q01DX011 (oral), vehicle: carboxymethylcellulose (CMC)): 1 % of control and 3 % of control
T/C (dose: 50.0 mg/kg/injection, schedule: Q03DX004 (ip), vehicle: carboxymethylcellulose (CMC)): 80 % of control
T/C (dose: 50.0 mg/kg/injection, schedule: Q#A X022 (ip), vehicle: carboxymethylcellulose (CMC)): 2 % of control
T/C (dose: 75.0 mg/kg/injection, schedule: Q01DX001 (ip), vehicle: carboxymethylcellulose (CMC)): 80 % of control
T/C (dose: 75.0 mg/kg/injection, schedule: Q03DX004 (ip), vehicle: carboxymethylcellulose (CMC)): 14 % of control
T/C (dose: 100.0 mg/kg/injection, schedule: Q01DX001 (ip), vehicle: carboxymethylcellulose (CMC)): 46 % of control
T/C (dose: 100.0 mg/kg/injection, schedule: Q01DX006 (iv), vehicle: carboxymethylcellulose (CMC)): 21 % of control
T/C (dose: 100.0 mg/kg/injection, schedule: Q01DX011 (ip), vehicle: carboxymethylcellulose (CMC)): 1 % of control
T/C (dose: 100.0 mg/kg/injection, schedule: Q01DX011 (oral), vehicle: carboxymethylcellulose (CMC)): 5 % of control
T/C (dose: 125.0 mg/kg/injection, schedule: Q01DX001 (ip), vehicle: carboxymethylcellulose (CMC)): 37 % of control
T/C (dose: 150.0 mg/kg/injection, schedule: Q03DX004 (ip), vehicle: carboxymethylcellulose (CMC)): 2 % of control
T/C (dose: 200.0 mg/kg/injection, schedule: Q01DX006 (iv), vehicle: carboxymethylcellulose (CMC)): 4 % of control
T/C (dose: 375.0 mg/kg/injection, schedule: Q01DX001 (ip), vehicle: carboxymethylcellulose (CMC)): 53 % of control

C[N+](C)(C)c1ncnc2nc[nH]c12
T/C (dose: 1.25 mg/kg/injection, schedule: Q01DX011 (ip), vehicle: saline): 89 % of control and 77 % of control
T/C (dose: 2.5 mg/kg/injection, schedule: Q01DX011 (ip), vehicle: saline): 61 % of control and 75 % of control and 86 % of control
T/C (dose: 11.25 mg/kg/injection, schedule: Q01DX011 (ip), vehicle: saline): 44 % of control
T/C (dose: 20.0 mg/kg/injection, schedule: Q01DX011 (ip), vehicle: saline): 6 % of control and 12 % of control
T/C (dose: 22.5 mg/kg/injection, schedule: Q01DX011 (ip), vehicle: saline): 3 % of control
T/C (dose: 40.0 mg/kg/injection, schedule: Q01DX011 (ip), vehicle: saline): 1 % of control and 3 % of control
T/C (dose: 45.0 mg/kg/injection, schedule: Q01DX011 (ip), vehicle: saline): 1 % of control
T/C (dose: 80.0 mg/kg/injection, schedule: Q01DX011 (ip), vehicle: saline): 1 % of control and 4 % of control
T/C (dose: 90.0 mg/kg/injection, schedule: Q01DX011 (ip), vehicle: saline): 1 % of control
T/C (dose: 160.0 mg/kg/injection, schedule: Q01DX011 (ip), vehicle: saline): 1 % of control and 3 % of control

S=c1nc[nH]c2c1ncn2C1CCCS1 (configuration not stated)
T/C (dose: 75.0 mg/kg/injection, schedule: Q01DX011 (ip), vehicle: methylcellulose (MC)): 114 % of control
T/C (dose: 225.0 mg/kg/injection, schedule: Q01DX011 (ip), vehicle: methylcellulose (MC)): 43 % of control

CC1=C(O)c2ccccc2C(=O)C1=O
T/C (dose: 25.0 mg/kg/injection, schedule: Q01DX011 (ip), vehicle: other): 106 % of control
T/C (dose: 50.0 mg/kg/injection, schedule: Q01DX011 (ip), vehicle: other): 84 % of control
T/C (dose: 100.0 mg/kg/injection, schedule: Q01DX011 (ip), vehicle: other): 96 % of control

CC(=O)OCC(=O)C1(O)C(C)CC2C3C=C(C)C4=Cc5c(cnn5-c5ccccc5)CC4(C)C3C(O)CC21C (configuration not stated)
T/C (dose: 0.01 mg/kg/injection, schedule: Q01DX011 (sc), vehicle: steriod suspending solution): 74 % of control
T/C (dose: 0.02 mg/kg/injection, schedule: Q01DX011 (sc), vehicle: steriod suspending solution): 59 % of control
T/C (dose: 0.05 mg/kg/injection, schedule: Q01DX011 (sc), vehicle: steriod suspending solution): 46 % of control and 48 % of control
T/C (dose: 0.1 mg/kg/injection, schedule: Q01DX011 (sc), vehicle: steriod suspending solution): 19 % of control and 23 % of control
T/C (dose: 0.2 mg/kg/injection, schedule: Q01DX011 (sc), vehicle: steriod suspending solution): 9 % of control and 13 % of control
T/C (dose: 1.0 mg/kg/injection, schedule: Q01DX011 (sc), vehicle: steriod suspending solution): 14 % of control
T/C (dose: 5.0 micrograms/kg/injection, schedule: Q01DX011 (sc), vehicle: steriod suspending solution): 54 % of control
T/C (dose: 10.0 micrograms/kg/injection, schedule: Q01DX011 (sc), vehicle: steriod suspending solution): 106 % of control
T/C (dose: 25.0 micrograms/kg/injection, schedule: Q01DX011 (sc), vehicle: steriod suspending solution): 46 % of control

O=C(CCBr)N1CCN(C(=O)CCBr)CC1
T/C (dose: 5.6 mg/kg/injection, schedule: Q01DX011 (ip), vehicle: methylcellulose (MC)): 103 % of control
T/C (dose: 11.25 mg/kg/injection, schedule: Q01DX011 (ip), vehicle: methylcellulose (MC)): 89 % of control and 94 % of control
T/C (dose: 15.0 mg/kg/injection, schedule: Q01DX011 (ip), vehicle: carboxymethylcellulose (CMC)): 56 % of control
T/C (dose: 22.5 mg/kg/injection, schedule: Q01DX011 (ip), vehicle: methylcellulose (MC)): 40 % of control and 65 % of control
T/C (dose: 30.0 mg/kg/injection, schedule: Q01DX011 (ip), vehicle: carboxymethylcellulose (CMC)): 37 % of control
T/C (dose: 45.0 mg/kg/injection, schedule: Q01DX011 (ip), vehicle: methylcellulose (MC)): 51 % of control
T/C (dose: 60.0 mg/kg/injection, schedule: Q01DX011 (ip), vehicle: carboxymethylcellulose (CMC)): 24 % of control
T/C (dose: 90.0 mg/kg/injection, schedule: Q01DX011 (ip), vehicle: methylcellulose (MC)): 12 % of control
